Where two headings read alike, the source gives them in different places.
How the values were obtained:
Daoy cell [1] = assay: Mitochondria membrane potential difference by TMRM, Daoy cell; type: cell-based, human
Source text: (§1) For cells with active mitochondria permeability transition pore, adding peroxide (such as H2O2) could increase the activity of mitochondria permeability transition pore, resulting in a decrease in mitochondria membrane potential.
(§2) The mitochondria membrane potential difference was detected by Tetramethylrhodamine (TMRM), the high fluorescence intensity of TMRM represented the high membrane potential difference.

NCI-H82 cell [2] = assay: Mitochondria membrane potential difference by TMRM, NCI-H82 cell; type: cell-based
Source text: as §1, §2

[3] = test system: oxidative phosphorylation pathway of mitochondria; assay: Cellular oxygen consumption (OCR), XFe metabolic analysis system; type: cell-based; details: NCI-H82 cell; 118.2 μM; within half an hour; FIG. 1
Protocol: The oxygen required by cell was mainly consumed in the mitochondria respiratory chain, so the measurement of cellular oxygen consumption (OCR, oxygen consumption rate) could directly reflect the activity of the oxidative phosphorylation pathway of mitochondria. In this experiment, the XFe metabolic analysis system was used to measure the oxygen consumption of NCI-H82 cell in the presence or absence of Compound SJ2858 (baicalein) and Compound SJ2775 (baicalin).
Rotenone (abbreviated as RO, 0.5 μM) is a known inhibitor of mitochondria oxidative phosphorylation pathway complex I, Antimycin A (abbreviated as AA, 0.5 μM) is a known inhibitor of mitochondria oxidative phosphorylation pathway complex III. Compound SJ2858, 73.2 μM; Compound SJ2775, 118.2 μM.

Daoy cell [4] = assay: Cell viability, Promega CellTiter-Glo, Daoy cell; type: cell-based, human; details: read-out: IC50 of cell viability inhibition
Protocol: (§3) Cell viability was detected by using the Promega CellTiter-Glo kit, the kit reflected cell viability by directly measuring intracellular ATP content. […] Daoy cell and NCI-H82 cell were cultured in DMEM containing 10% FBS (plus p/s).

NCI-H82 cell [5] = assay: Cell viability, Promega CellTiter-Glo, NCI-H82 cell; type: cell-based; details: NCI-H82 cell without CSA (inactive mPTP); read-out: IC50 of cell viability inhibition
Protocol: as §3

Structure (SMILES)	Effect on membrane potential (in words) (Daoy cell [1])	Relative TMRM signal intensity (%), mean value (Daoy cell [1]; H2O2 +, CsA −) [%]	Effect on membrane potential (in words) (NCI-H82 cell [2])	Relative TMRM signal intensity (%), mean value (NCI-H82 cell [2]; H2O2 +, CsA −) [%]	Inhibition of oxygen consumption (in words) [3]	IC50 (Daoy cell [4]; Daoy cell with CSA (1.5 μM mPTP inhibitor)) [µM]	IC50 (Daoy cell [4]; Daoy cell without CSA (active mPTP)) [µM]	IC50 (NCI-H82 cell [5]) [µM]
OO [Compound H2O2, H2O2]	down-regulated	82	not affected	119	–	–	–	–
O=C(O)[C@H]1O[C@@H](Oc2cc3oc(-c4ccccc4)cc(=O)c3c(O)c2O)[C@H](O)[C@@H](O)[C@@H]1O [Compound SJ2775, baicalin]	–	–	–	–	significantly inhibit	45.4	> 100	38.6
